The results in this text go back to patent publication US6191152A, “2-(1,2,4-triazole-1-yl)-1,3,4-thiadiazole derivatives having an effect on the C.N.S. and the heart” (EGIS Gyogyszergyar Rt., priority 1997, dated 2001).

Assay [1] deals with isolated rat thoracic aorta. Briefly: Vascular relaxing effect in potassium chloride (20 mM KCl) contracted isolated rat thoracic aorta. Set-up: species or system rat (male SPRD). To be noted: for IC50: Rattus norvegicus, 20 mM KCl contracted strips, 37° C., read-out: IC50 (vascular relaxation in isolated rat thoracic aorta). As to the method: 1. Measurement of Vascular Relaxing Effect in Potassium Chloride Contracted Isolated rat Thoracic Aorta
Experiments were performed in thoracic aortas obtained from male SPRD rats weighing 250 to 300 g. Thoracic aortas excised from rats killed by decapitation and ensanguination were cleaned of fat and connective tissue, then were immediately placed in carbogenized TYRODE solution. The composition of the normal TYRODE solution was the following (in mM): NaCl 114.7, KCl 3.7, CaCl2 3.6, MgCl2 0.49, NaHCO3 19.9, NaH2 PO4 0.32, glucose 5.1.
Two mm wide and 20 to 25 mm long strips were cut from the aortas along a helical line at 45° angle. Aortic strips were mounted vertically between two cotton threads in 10 ml organ chambers, the lower threads were attached to the organ chambers and the upper threads were connected to isometric force transducers. The strips were incubated under 1 g resting tension at 37° C. for 120 minutes, then resting vascular tone was recorded. Then the strips were contracted with a TYRODE solution containing 20 mM KCl. The composition of the high potassium TYRODE solution was the following (in mM): NaCl 94.7, KCl 20, CaCl2 3.6, MgCl2 0.49, NaHCO3 19.9, NaH2 PO4 0.32, glucose 5.1.
When stable vascular tone developed, increasing doses of the test substance were added to the organ bath. The effects of each test substance were measured at least in 3 tissue preparations obtained from different animals. Decreases in vascular tension caused by the test substances were expressed as percentage changes and IC50 for each tissue preparation was determined by sigmoid (in few casses linear) curve fitting.
For comparison, cromakalim i.e. (±)-trans-3,4-dihydro-3-hydroxy-2,2-dimethyl-4-(2-oxo-1-pyrrolidinyl)-2H-1-benzopyrane-6-carbonitrile was used.

For assay [2], the system named is isolated guinea-pig papillary muscle. Briefly: Effective refractory period (ERP) prolonging effect in isolated guinea-pig right ventricular papillary muscle, in vitro. More on the design: species or system guinea-pig (male). The following applies: for ERP change at 10^-4 M / ERP change at 10^-5 M: 30 minutes incubation, mean of at least four preparations. The text has this:
2. Measurement of Effective Refracter Period in Guinea-pig Right Ventricular Papillary Muscle, in Vitro.
Effective refracter period (ERP) is regarded to be the shortest time interval between two identical electrical stimuli when both can evoke a twitch in the papillary muscle. A second stimulus applied earlier than the ERP is not effective. Compounds prolonging ERP can have antiarrhythmic effect. This method is useful primarily for testing antiarrhythmic agents belonging to class III according to the Vaughan Williams classification /Bexton, R. S. and Camm. A., J. Pharmacol. Ther., 17, 315 (1982)/.
Experiments were performed in a Schuler-type organ bath system having 4 channels. Male guinea-pigs weighing 450 to 750 g were killed by a blow on the head and ensanguinated. The heart was rapidly excised and papillary muscles of appropriate size (lower than 1 mm in diameter) were dissected from the right ventricle. The preparations were vertically mounted in 20 ml organ chambers containing Krebs solution bubbled with carbogen (consisting of 95% of O2 and 5% of CO2) and maintained at 35° C. The upper end of the muscles was connected with cotton threads to force-displacement transducers coupled to a recorder for measuring isometric tension via DC-bridge amplifiers. The lower end of the papillary muscles was pinned to the organ chamber with a silver hook that was also used as a stimulating electrode. The other electrode was immersed into the organ bath and had no direct contact with the preparation. The composition of the Krebs solution was the following (in mm): NaCl 118, KCl 4.8, NaHCO3 27.2, glucose 11.1, MgSO4 1.2, KH2 PO4 1, CaCl2 2.6, pH=7.4.
The preparations were equilibrated for 120 minutes under a resting tension of 1 g. During equilibration they were electrically stimulated at a rate of 2 Hz with 1 msec rectangular pulses that were above the diastolic threshold voltage by 10%. ERP was determined using a standard extrastimulus technique. Extrastimuli (S2) were interjected between the normal stimuli (S1) in such a way that the S1 -S2 interval was initially below the refracter period of the tissue. The S1 -S2 interval was then widened by increments of 1 msec until the extrastimulus (S2) evoked twitch of the papillary muscle. The force of the twitch caused by S2 is larger than those caused by normal (S1) stimuli (postextrasystolic potentiation). The equipment measured the shortest S1 -S2 interval at which the extrastimulus evoked a twitch that was larger than the force of control twitches by 25%. This interval is equivalent with the ERP.
The experimental protocol was as follows:
Two control ERP measurements were performed 20 minutes apart, then appropriate amount of the test substance was added to produce 10^-4 M concentration in the bathing solution. After 30 minutes incubation with the test substance, two ERP measurements were performed 30 minutes apart.
When the test substance increased ERP at 10^-4 M by 40 msec or more, its effect on ERP was tested also at 10^-5 M.
The effect of the test substances was characterized by the difference between the first treated and the second control measurements. Individual data obtained from four different preparations, at least, were averaged. The reference substance used was sotalol i.e. N-[4-/1-hydroxy-2-(1-methylethylamino)ethyl/plenyl]methane sulfonamide.

The subject of assay [3] is isolated Langendorff rat hearts. Briefly: Cardioprotective effect (time to contracture, TTC) in globally ischemic isolated Langendorff rat hearts. More on the design: species or system rat (male Wistar). The following applies: for TTC change vs vehicle (%) at 10 µM / TTC change vs vehicle (%) at 1 µM: Rattus norvegicus, compared to the vehicle treated group; for TTC change vs vehicle (%) at 10 µM: 10^-5 M; for TTC change vs vehicle (%) at 1 µM: 10^-6 M. From the text:
3. Measurement of Cardioprotective Effect in Ischemic rat Heart (Langendorff) Preparation
If the blood supply to a part of the myocardium is interrupted (e.g. during myocardial infarction), then the intracellular calcium concentration starts to rise and gradually attains pathophysiological levels. Myocardial contraction is regulated by calcium, therefore, high intracellular calcium concentration results in contracture of the myocardium. In isolated rat hearts, contracture develops in about 10 minutes after starting global ischemia, and this period is called time to contracture (TTC). Any substance which can inhibit the rise of intracellular calcium concentration and the development of contracture caused by high calcium concentration during ischemia protects the myocardium from impairment i.e. it has cardioprotective effect. Under experimental conditions,the cardioprotective effect of drugs is shown by their ability to prolong TTC. The cardioprotective effect of the compounds of the invention was examined by measuring TTC in globally ischemic Langendorff rat hearts/Longman, S. D. and Hamilton, T. C., Medicinal Research Reviews, 12, 73-148 (1992)/.
Male Wistar rats weighing 300 to 350 g were injected with 2500 IU (0.5 ml) of heparin i.p. and 10 minutes later they were anaesthetized with sodium pentobarbital/5-ethyl-5-(1-methylbutyl)-2,4,6(1H,3H,5H)-pyrimidinetrione sodium salt/in a dose of 60 mg/kg i.p. The heart was quickly excised and connected to a Langendorff apparatus via the aorta. The hearts were perfused at a constant perfusion pressure (60 mmHg) and temperature (37° C.) with a modified Krebs-Henseleit solution gassed with 95% of O2 and 5% of CO2. The composition of the modified Krebs-Henseleit solution was the following (in mM): NaCl 118, KCl 4.7, CaCl2 2.5, NaHCO3 24.88, KH2 PO4 1.18, MgSO4 1.6, EDTA 0.5 and glucose 11. Partial O2 and CO2 pressures and also pH were measured and maintained within normal limits (pO2 ==64000-77000 Pa, pCO2 =3800-4500 Pa, pH=7.3-7.45). A hole was cut in the wall of the left atrium and a water-filled plastic balloon attached to a metal cannula was then inserted into the left ventricle via the left atrium for measuring left ventricular pressure. End diastolic pressure was set to about 645 Pa, and adjusted for during the equilibration period but not later.
After a 20 minutes equilibration period, the hearts were perfused for 10 minutes with the test substance at 10^-5 or 10^-6 concentration or with the vehicle (0.04% of dimethyl sulfoxide). Global ischemia was initiated by completely shutting off the perfusate flow and carbogenization for 25 minutes. During ischemia, the time period from the beginning of ischemia until 645 Pa increase in left ventricular end diastolic pressure was measured (TTC).
Three experiments were performed with the test substances at each concentration and parameters of 3 additional vehicle treated hearts were measured along with the test substance.
Individual TTC values were averaged and the effect of the test substances was expressed as a percentage change compared to the vehicle treated group. Compounds that prolong TTC are cardioprotective. As a reference substance, lemakalim i.e. (3S)-trans-3,4-dihydro-3-hydroxy-2,2-dimethyl-4-(2-oxo-1-pyrrolidinyl)-2H- 1-benzpyrane-6-carbonitrile was used.

Counter-ions that a name gives are not always drawn.

`CSc1nc(N)n(-c2nnc(-c3cccc(OCCCN(C)C)c3)s2)n1` [Example 26, 2-(5-Amino-3-methylthio-1H-1,2,4-triazole-1-yl)-5-/ 3-(3-dimethylaminopropoxy)phenyl/-1,3,4-thiadiazole hydrochloride]: in assay [1], the IC50 was greater than 10 µM. In addition, in assay [2], the “ERP prolongation (in words)” value is reported as “prolonged not only TTC but ERP as well”, the “ERP change at 10^-4 M” value came to 148 msec and the “ERP change at 10^-5 M” value was determined as 21 msec. Further, in assay [3], the “TTC prolongation (in words)” value is listed as “prolonged not only TTC but ERP as well”, the TTC change vs vehicle (%) at 10 µM amounted to 41% and the TTC change vs vehicle (%) at 1 µM was 33%.
`CSc1nc(N)n(-c2nnc(-c3ccccc3OCCCN(C(C)C)C(C)C)s2)n1` [Example 45, 2-(5-Amino-3-methylthio-1H-1,2,4-triazole-1-yl)-5-[2-/ 3-di(2-methylethyl)aminopropoxy/phenyl]-1,3,4-thiadiazole]: the IC50 in assay [1] is greater than 1 µM. Moreover, in assay [3], the TTC change vs vehicle (%) at 10 µM came to 31% and the TTC change vs vehicle (%) at 1 µM was determined as 30%.
Consider `CN1CCN(c2nc(N)n(-c3nnc(-c4c(Cl)cccc4Cl)s3)n2)CC1` [Example 10, 2-/5-Amino-3-(4-methylpiperazino)-1H-1,2,4-triazole-1-yl/ -5-(2,6-dichlorophenyl)-1,3,4-thiadiazole hydrochloride monohydrate], for which the IC50 in assay [1] was greater than 10 µM. Also, in assay [2], the “ERP change at 10^-4 M” value is reported as 120 msec and the “ERP change at 10^-5 M” value is listed as 32 msec. Besides, in assay [3], the TTC change vs vehicle (%) at 10 µM worked out at 74% and the TTC change vs vehicle (%) at 1 µM came to 47%.
In the case of `Nc1nc(N2CCCCC2)nn1-c1nnc(-c2ccccc2OCCNCCN2CCOCC2)s1` [Example 91, 2-(5-Amino-3-piperidino-1H-1,2,4-triazole-1-yl)-5-[2-/ 2-(2-morpholinoethyl)amino/ethoxy]phenyl-1,3,4-thiadiazole], the IC50 in assay [1] was greater than 1 µM. Moreover, in assay [3], the TTC change vs vehicle (%) at 1 µM was determined as 58%.
Consider `CC1(C)Oc2ccc(C#N)cc2[C@@H](N2CCCC2=O)[C@@H]1O` [lemakalim, (3S)-trans-3,4-dihydro-3-hydroxy-2,2-dimethyl-4-(2-oxo-1-pyrrolidinyl)-2H-1-benzpyrane-6-carbonitrile, reference compound], for which the “vascular relaxation of isolated rat thoracic aorta (in words)” value in assay [1] was “considerably relaxed isolated rat thoracic aorta”. Further, in assay [3], the “TTC prolongation (in words)” value was “prolonged not only TTC”, the TTC change vs vehicle (%) at 10 µM came to 55% and the TTC change vs vehicle (%) at 1 µM was found to be 20%.
On to `CCN(CCO)CCOc1ccccc1-c1nnc(-n2nc(N3CCCCC3)nc2N)s1` [Example 90, 2-(5-Amino-3-piperidino-1H-1,2,4-triazole-1-yl)-5-{2-[2-/ 2-ethyl-2-(2-hydroxyethyl)amino/ethoxy]phenyl}-1,3,4-thiadiazole], for which, in assay [1], the IC50 was greater than 10 µM. In assay [3], this compound showed a TTC change vs vehicle (%) at 10 µM of 36% and a TTC change vs vehicle (%) at 1 µM of 19%.
